Experimental data taken from patent US20230235374A1, “High Throughput Assays for Detecting Translation Readthrough Inducers” (The Trustees of the University of Pennsylvania, priority 2021, published 2023).

Legend:
[1] = system: Atto(pep)-Stop-POST5 (RFC-dependent termination); test: Plate reader fluorescence anisotropy assay of pentapeptide release; format: biochemical, shrimp (Artemia salina); details: added ataluren 200-1,000 μM
Experimental: Plate reader assays were run in a Tecan F200® 96-well plate reader (Greiner® black, non-binding, chimney flat) equipped with 640 nm excitation and 700 nm polarization filters using 96-well plates. Atto(pep)-Stop-POST5 in Buffer 4 (0.1 μM, 80 μl) containing GTP (1 mM) was added to plate wells±ataluren at 25° C. eRF1 and eRF3 aliquots stored at −80° C. were thawed for 15 s at 37° C. and added directly to a premade ice-cold GTP (1 mM)±ataluren solution in Buffer 4. The resulting release factor solution was incubated at 25° C. for 1 min, and then added quickly in 80 μL portions to the Atto(pep)-Stop-POST5 containing wells with a multichannel pipette to the Atto(pep)-Stop-Posts wells. The final concentrations were: eRF1, 0.025-0.4 μM; eRF3, 0.8 μM; Atto(pep)-Stop-Posts, 0.05 μM. Fluorescence anisotropy decay graphs were fit with GraphPad Prism, using the one phase decay model to obtain peptide dissociation rates.
Ensemble fluorescence anisotropy results using Atto(pep)-Stop-POST5. The fluorescence anisotropy of the pentapeptidyl moiety of Atto(pep)-Stop-POST5 was quite high (0.22), and decreased following addition of RFC, providing a convenient measure of the rate of pentapeptide release from the ribosome. […] Each such time dependency could be fit to a single exponential, giving the collected rate constants presented in FIG. 9G, in which the rate dependence as a function of RFC concentration was measured at 0, 200, 500, and 1,000 μM ataluren. In the absence of ataluren, EC50 (0.029±0.002 μM) and Vmax (0.31±0.02) values were obtained for pentapeptide release similar to those measured by smTIRF. In addition, as with the smTIRF results, Vmax values were unaffected by added ataluren but EC50 values increased, reaching ˜0.06 μM at 1000 μM.

[2] = target: T1, near-cognate aa-tRNA.eEF1A.GTP complex (TC) binding at a stop codon (Saccharomyces cerevisiae, UniProt P02994); details: Ng et al., 2021; cited from earlier work
T1 sequence (P02994 2-458 limits assumed): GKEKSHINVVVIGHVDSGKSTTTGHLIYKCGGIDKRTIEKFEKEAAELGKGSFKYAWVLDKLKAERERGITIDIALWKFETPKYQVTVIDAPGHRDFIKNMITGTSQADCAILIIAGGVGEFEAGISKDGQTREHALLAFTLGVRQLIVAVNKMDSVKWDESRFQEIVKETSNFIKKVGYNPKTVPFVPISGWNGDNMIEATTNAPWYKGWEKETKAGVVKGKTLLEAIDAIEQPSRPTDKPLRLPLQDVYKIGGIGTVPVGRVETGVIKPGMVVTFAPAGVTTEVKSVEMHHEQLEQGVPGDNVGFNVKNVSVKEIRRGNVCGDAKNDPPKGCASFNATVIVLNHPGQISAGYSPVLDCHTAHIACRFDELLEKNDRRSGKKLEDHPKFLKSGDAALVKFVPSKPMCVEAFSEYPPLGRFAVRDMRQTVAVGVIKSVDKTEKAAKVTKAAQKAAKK

[3] = system: POST5 complex (eRF1 & 3 peptide release); test: Fluorometer anisotropy measurement of POST5 complex Stop IRES-Lys*; format: biochemical; details: 0.1 μM POST5, eRF1 0.1 μM, eRF3 0.2 μM, GTP 2.0 mM, 25° C.
Experimental: Fluorometer measurements of POST5 complex Stop IRES-Lys* included the following treatment methods and components:
POST5 complex was treated with ternary complexes of release factor 1 and 3 and GTP. Lys was labeled with the fluorescent label Atto647. Conditions for the assay were as follows: at 25° C., Buffer condition included 0.1 μM POST 5. Release factor 1 and 3 (eRF1 & 3) POST 5 condition included 0.1 μM POST5; eRF1 at 0.1 μM; eRF3 at 0.2 μM; and GTP at 2 mM. Release factor 1 and 3 (eRF1 & 3) POST 5 and ataluren condition included 0.1 μM POST5; eRF1 at 0.1 μM; eRF3 at 0.2 μM; GTP at 2.0 mM; and Ataluren at […].

[4] = target: T2, eRF3 (Saccharomyces cerevisiae, UniProt P05453); test: [3H]-AzAt photoaffinity labeling of eRF3; format: binding; details: near linear response to AzAt concentration
T2 construct: amino acid residues (166-685) of the eRF3 open reading frame; made in house; host or cells: E. coli BL21(DE3) CodonPlus
Experimental: (§1) Photoaffinity labeling with [^3H]-AzAt. Samples in Buffer 4, typically 20 μL, were incubated in the dark (20 min for Stop-POST5 and 80S-IRES complexes, 2 min for release factors) with various concentrations of [^3H]-AzAt at 37° C., transferred to a UV-transparent cuvette which was covered with parafilm to prevent evaporation, and irradiated in a Rayonet photochemical reactor equipped with 300 nm UV lamps for 5 min at room temperature. This was followed by quenching with 2 mM DTT at 37° C. for 5 min under ambient light. The irradiation time gave complete photolysis of the phenyl azide moiety in AzAt. Photolysis was also complete at 5 min in the presence of 1 mM ataluren, ruling out internal filtering effects.
Photoaffinity labeling of release factors. Solutions containing eRF1 (10 μM), eRF3 (20 μM) and 1 mM GMPPMP were pre-incubated at 37° C. for 2 min to form the ternary complex prior to photolabeling with [^3H]-AzAt. After quenching, reaction mixtures were loaded onto a 4-15% mini protean SDS-PAGE gel for protein separation and isolation. Gel slices containing eRF1 or eRF3, as shown by Coomassie Blue R250 staining, were crushed and the radioactivity was extracted in extraction buffer (50 mM Tris-HCl, 150 mM NaCl, and 0.1 mM EDTA; pH 7.5) by vigorously shaking at 70° C. for 30 min. The data fitting was performed using the software Prism. […]

[5] = system: Stop-POST5 complex; test: [3H]-AzAt photoaffinity labeling of Stop-POST5 complex; format: binding, shrimp (Artemia salina)
Experimental: as §1
Stop-POST5 and 80S-IRES complexes. 1 μM solutions of either Stop-POST5 or 80S-S.IRES, determined by A260, were photolabeled by [^3H]-AzAt. The sample was then either directly purified by ultracentrifugation through a sucrose cushion to determine the photoincorporation stoichiometry in the complex, or subjected to phenol/chloroform extraction to determine the photoincorporation stoichiometry in the total RNA. To determine the photoincorporation background arising from incomplete removal of noncovalently bound photolyzed AzAt, AzAt was prephotolysed for 5 min before adding to the complex, followed by the 20 min incubation in dark at 37° C. and subsequent sucrose cushion purification or RNA extraction as described above.

[6] = system: 80S.IRES complex; test: [3H]-AzAt photoaffinity labeling of 80S.IRES complex; format: binding, shrimp (Artemia salina); details: FIG. 2C
Experimental: as §1
Stop-POST5 and 80S-IRES complexes. 1 μM solutions of either Stop-POST5 or 80S-S.IRES, determined by A260, were photolabeled by [^3H]-AzAt. The sample was then either directly purified by ultracentrifugation through a sucrose cushion to determine the photoincorporation stoichiometry in the complex, or subjected to phenol/chloroform extraction to determine the photoincorporation stoichiometry in the total RNA. […]

T2 sequence (P05453 166-685): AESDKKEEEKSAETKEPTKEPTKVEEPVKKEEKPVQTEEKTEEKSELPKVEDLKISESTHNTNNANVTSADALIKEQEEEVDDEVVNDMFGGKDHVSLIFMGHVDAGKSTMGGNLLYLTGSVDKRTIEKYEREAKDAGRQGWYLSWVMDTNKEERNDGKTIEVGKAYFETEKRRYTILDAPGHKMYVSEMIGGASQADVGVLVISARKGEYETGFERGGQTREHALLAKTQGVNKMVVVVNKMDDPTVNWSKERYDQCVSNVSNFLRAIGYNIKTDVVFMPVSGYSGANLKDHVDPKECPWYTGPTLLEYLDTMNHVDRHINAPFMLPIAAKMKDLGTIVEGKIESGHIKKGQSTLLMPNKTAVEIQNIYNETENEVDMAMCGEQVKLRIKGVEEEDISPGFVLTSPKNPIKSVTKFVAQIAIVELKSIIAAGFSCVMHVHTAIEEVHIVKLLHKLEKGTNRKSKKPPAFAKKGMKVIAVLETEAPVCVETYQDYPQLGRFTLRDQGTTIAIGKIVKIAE

SMILES | effect on Vmax values [1] | effect on productive binding of near-cognate TC at a stop codon [2] | effect on peptide release (fluorescence anisotropy change) [3] | nature of photo-incorporation into eRF3 [4] | saturation labeling of Stop-POST5 [5] | share of photoincorporation found in RNA components of Stop-POST5 [5] | KA, AzAt photoincorporation into Stop-POST5 ([5]; fit to eq (1), FIG. 2B) | share of RNA photoincorporation found within 18S and 26S rRNA ([5]; urea-PAGE analysis) | photoincorporation stoichiometry into 80S.IRES, lower vs. Stop-POST5 [6]
O=C(O)c1cccc(-c2noc(-c3ccccc3F)n2)c1 [Ataluren] | unaffected | no effect | inhibited peptide release | – | – | – | – | – | –
[N-]=[N+]=Nc1ccc(-c2nc(-c3cccc(C(=O)O)c3)no2)cc1 [AzAt] | – | – | – | nonspecific binding | 1.2 /Stop-POST5 | More than 80% | 120 ± 60 µM | > 90% | 25%
